In patent US20150038575A1, “MELANOGENESIS-INHIBITORY CONSTITUENTS OF Ligusticum sinense” (priority 2013, published 2015):

What was measured:
tyrosinase = test: Assay of tyrosinase activity (L-tyrosine substrate, absorbance at 475 nm); format: biochemical; details: mushroom tyrosinase, pH 6.8, 37° C.
Experimental: The source of the tested tyrosinase was from mushroom, and the substrate of the tyrosinase was L-tyrosine. The experiment was performed by the method below. First, 40 μL of pH 6.8 phosphate buffer solution, 40 μL of various sample solution (samples in 0.07M pH6.8 phosphate buffer solution containing 0.1 vol % of DMSO), and 40 μL of tyrosinase (250 unit/mL, dissolved in pH 6.8 phosphate buffer solution at a concentration of 0.07 M) were sequentially and respectively added into 96-wells plate. The sample solutions above respectively contain the compounds II, III, and kojic acid. The group added with the sample solution containing kojic acid was used as positive control (PC). A group without adding the sample solution was used as control (C). The mixtures described above were thermostat at 37° C. for 10 minutes. Then, 80 μL of tyrosine solutions (0.4 mg/mL, dissolved in 0.07M pH6.8 phosphate buffer solution) were respectively added into each mixture and thermostat for another 20 minutes to perform reaction. The amount of the obtained product L-DOPA of each mixture was measured at 475 nm to get absorbance of each sample. Therefore, the tyrosinase activity was calculated by the formula below. Tyrosinase activity(%)=[(A−B)/(C−D)]×100 The symbol A above is the absorbance of groups containing a sample and tyrosinase. The symbol B above is the absorbance of groups containing a sample but not tyrosinase. The symbol C above is the absorbance of groups containing tyrosinase but not a sample.

[1] = tested on: B16-F10 murine melanoma cells; test: Viability test of B16-F10 murine melanoma cells (MTT assay); format: cell-based; details: 72 hours; for cell viability: FIG. 8A
Experimental: In this test, B16-F10 murine melanoma cells (BCRC No. 60031) were used.
First, the B16-F10 murine melanoma cells were cultured in Dulbecco's Modified Eagle's Medium (abbreviated as DMEM, which contains 90% (v/v) DMEM, 10% (v/v) fetal bovine serum), and additionally added 1% (v/v) Penicillin-Streptomycin Solution. Then, the cells in the mediums were incubated under 5% CO2/air at 37° C. in 70% of humidity. The medium was exchanged every two days. When the cells grew to a density of 80-90%, the cells were treated by trypsin to desorb the cells from the walls of containers Next, haemocytometer (Neubauer Improved., Marienfeld, Germany) was used to count the number of the cells. Proper amount of cells were then transplanted into cell culture plates to prepare for cell viability tests.
Cell viability rate was determined by MTT assay. MTT assay was performed by using […] in the mitochondria of living cells to reduce yellow 3-(4,5-dimethylthiazol-2-yl)-2,5-diphenyl tetrazolium bromide (MTT) to purple formazan product. Therefore, the amount of the purple formazan product is proportional to the number of the living cells and thus can be determined by spectrophotomter.
In a 12-wells cell plate, 1×10^3 cells were implanted into each well and stayed for 24 hours to let the cells attach to the wail of the well. Then, the compounds I, II, Ill and arbutin (positive control; PC) were respectively added into each wells and cultured for 72 hours. Next, MTT dye (Applichem Co., Denmark) dissolved in 0.5 mg/ml PBS solution was added to each well to react for 2 hours. The obtained purple formazan product was dissolved in 400 μL of DMSO, and then the absorbance of the purple DMSO solution was analyzed by microplate reader to get the absorbance at 570 nm. The cell viability rate was determined by the formula below.
Cell viability rate (%)=(Absorbance of test group/absorbance of blank group)×100%

[2] = tested on: B16-F10 murine melanoma cells; test: Analysis of melanin content in B16-F10 murine melanoma cells (α-MSH stimulated); format: cell-based; details: for melanin content in the melanoma cells: B16-F10 cells, 25, 50 and 100 μM, FIG. 8B; for melanin content in the melanoma cells / IC50: 100 nM α-MSH, 72 hours; for IC50: Mus musculus, B16-F10 cells, read-out: IC50 for inhibiting the melanogenesis; for inhibitory activity of melanogenesis: summary statement on the isolated compounds
Experimental: The melanin content in B16-F10 murine melanoma cells was analyzed by a modified Hosoi method disclosed in 1985 (Hosoi J, Abe E, Suda T, Kuroki T, Regulation of melanin synthesis of B16 mouse melanoma cells by 1 alpha, 25-dihydroxyvitamin D3 and retinoic acid. Cancer Res. 1985; 45(4):1474-8).
First, in a 12-wells cell plate, 1×10^3 cells were implanted into each well and stayed for 24 hours to let the cells attach to the wall of the well. Various concentrations (25, 50, and 100 μM) of the compounds I, II, III, and arbutin (positive control; PC) were respectively added into each wells, and 100 nM of α-melanocyte stimulating hormone (α-MSH) was subsequently adaded. The cells were cultured for 72 hours. After the treatment above, cells were washed by PBS, and then treated by trypsin to desorb the cells. 150 μL of 1N NaOH solution containing 10% DMSO was then added and heated in a 80° C. water bath for 1 hour. After cooling to room temperature, the samples were centrifuge at 5000 rpm for 10 minutes. The upper solution was transferred into a 96-wells plate and analyzed by a microplate reader at 405 nm. The absorbance at 405 nm for each sample was read to calculate the melanin content of each sample.

[3] = tested on: NHEKs in Leiden epidermal models (LEMs); test: Viability test of human epidermal skin equivalents (Leiden epidermal models, MTT); format: cell-based; details: 24 hours exposure
Experimental: In this test, fresh mamma reduction surplus skin of a single individual (D002, Fitzpatrick skin type I/II) was used for isolation of normal human epidermal keratinocytes (NHEKs).
Leiden epidermal models (LEMs) were generated by seeding NHEKs on an inert filter insert. The NHEKs in LEMS were incubated overnight under submerged conditions in keratinocyte medium. Within four days, fetal bovine serum was gradually omitted and the NHEKs in LEMs were cultured serum-free at the air-liquid interface for 7 days, while culture medium was refreshed twice a week.
Viability assays were performed by adding 0,5 mL of 1 mg/mL MTT to each of the NHEKs in LEMs for 3h, after 24 hours exposure to the test articles (compounds II, III, and DMSO (negative control)). The precipitated blue formazan product was extracted from the cells within 2 hours with 0.5 mL isopropanol per well. The concentration of formazan was measured by determining the OD at 570 nm using a Tecan Infinite F50 microplate reader.

[4] = concentration of 10-100 μM, FIG. 8C

Row | Structure (SMILES) | inhibitory effect to the tyrosinase activity (tyrosinase) | cytotoxicity to the B16-F10 murine melanoma cells [1] | cell viability [1] | melanin content in the melanoma cells [2] | IC50 [2] [µM] | inhibitory activity of melanogenesis [2] | cytotoxicity to the NHEKs in the Leiden epidermal models [3] | cell viability ([3]; 10 μM) [%] | cell viability ([3]; 100 μM) [%] | cell viability [3, 4] | cell growth ([1]; at a concentration of 100 μM) | cell viability ([3]; 50 μM) [%]
1 | CCCC[C@@H]1OC(=O)[C@H]2CCCC[C@@H]12 [compound I, 3-Butylhexahydrophthalide] | do not show obvious inhibitory effect | did not have cytotoxicity | did not affect the cell viability | can decrease the melanin content | 100 ± 12.9 | have inhibitory activity of melanogenesis |  |  |  |  |  | 
2 | CCCC[C@@H]1OC(=O)C2=CCCC[C@H]21 [compound II, Neocnidilide] | do not show obvious inhibitory effect | did not have cytotoxicity | did not affect the cell viability | can decrease the melanin content | 31.1 ± 6.8 | have inhibitory activity of melanogenesis | did not have cytotoxicity | 97 | 92 | did not affect the cell viability |  | 
3 | C=CC(c1ccc(O)c(OC)c1)c1cc(/C=C/C(=O)O)cc(OC)c1O (stereo not drawn) [compound III] | do not show obvious inhibitory effect | did not have cytotoxicity |  | can decrease the melanin content | 78.9 ± 8.1 | have inhibitory activity of melanogenesis | did not have cytotoxicity | 98 | 106 | did not affect the cell viability | slight tendency to inhibit cell growth | 104
